The record followed here is patent US10238612B2, “Transdermal administration of tamsulosin” (Corium International, Inc., priority 2009, dated 2019).

This data set can be described thus: Solubility of tamsulosin in DMSO and in mixtures of DMSO and water. The data set is classed as physicochemical. The text has this: For example, dimethylsulfoxide (DMSO) may potentially be used. The table below gives some data on the solubility of tamsulosin in DMSO and in mixtures of DMSO and water: […]

The structures appear in SMILES notation.

For `CCOc1ccccc1OCCN[C@H](C)Cc1ccc(OC)c(S(N)(=O)=O)c1` [Tamsulosin, 5-[2-[[2-(2-ethoxyphenoxy)ethyl]amino]propyl]-2-methoxy-benzenesulfonamide], the “Solubility of Tamsulosin” value worked out at 230 mg/g (Water in DMSO 0 w/w %), 72.9 mg/g (Water in DMSO 8.85 w/w %) and 30.2 mg/g (Water in DMSO 16.85 w/w %). Moreover, the “Solubility of Tamsulosin (w/w %)” value is, setting by setting: (Water in DMSO 0 w/w %) 23.0 w/w %; (Water in DMSO 8.85 w/w %) 7.29 w/w %; (Water in DMSO 16.85 w/w %) 3.02 w/w %; (Water in DMSO 29.19 w/w %) 0.52 w/w %.
